One test has as its system Balb/c mice. Briefly: Murine Delayed-type-Hypersensitivity (DTH) Model. The test is classed as in vivo. Conditions: Mus musculus, iv; ear swelling after DNFB challenge; 0.3 mg/kg intravenously once daily; measured within 24 to 48 hours after ear challenge. Here is the method: Balb/c mice were sensitized by application of 20 μl of 0.5% of DNFB dissolved in acetone/olive oil to their footpads on day 0 and day 1. On day 5 animals are dosed intravenously with 0.3 mg/kg of test compound (or a negative control). Fifteen minutes later, 10 μl of 0.8% of DNFB dissolved in acetone/olive oil is topically applied externally on the right ear of the animal. As a control, the left ear is treated the same way with vehicle alone (acetone/olive oil).
The compounds (controls and test) are administered once daily until the completion of the study.
Within 24 to 48 hours after ear challenge, animals are anesthetized with isoflurane and the ear swelling is measured using a micrometer. The micrometer calipers are closed around the top portion of the each external ear until resistance from the ear is felt. Usually, the peak of the ear swelling happens around 48 hours after challenge.
Percent inhibition is determined in a similar manner as described for the CII model, above.

In a further test the test system is Lewis rats. Kind of test: Rat Collagen-induced Arthritis (rCIA) Model. Particulars: paw swelling, bovine type II collagen-induced arthritis, oral gavage 0.3 mg/kg BID from day 8, day of peak disease, typically day 17. The test is classed as in vivo. Here is the method: Two-month-old, female Lewis rats (Charles River Labs) were anesthetized with 3-5% isoflurane and arthritis was induced by intradermal injection of 0.3 ml (100 μl at three different sites) of an emulsion containing 1.5 mg/ml of bovine type II collagen (CII) (Elastin Products Co. Inc. Owensville, Mo.) in Incomplete Freund's Adjuvant (IFA) (Difco Laboratories, Detroit, Mich.) on day 0 at the base of the tail using a 30 gauge needle. A second injection was given on day 6. Control rats were injected with an equal amount of IFA only.
Test compounds of Formula I are formulated by diluting concentrated ethanol stock solutions with phosphate buffered saline (PBS) and dosed by oral gavage at 0.3 mg/kg twice a day (BID). Dosing was initiated on day 8 and continued to the end of the study, generally day 19 or day 20. Control animals were administered PBS alone.
The volume of both hind paws were measured using a water displacement plethysmometer (Ugo Basile, Biological Research Apparatus, Italy), and the onset of arthritis was indicated by increased paw volume, which appears approximately on day 11 post injection. Both paw volumes and body weights are measured throughout the study every 2-3 days. Nineteen to twenty-one days after CII injection, the rats are euthanized with CO2. Blood is collected by cardiac puncture and serum is saved. Both hind ankles are collected in 10% buffered formalin and saved (they can later be processed for histology).
Percent inhibition values were measured as follows. First, the magnitude of disease effect was calculated by taking the difference in paw swelling between control animals and animals that had not been administered CII (“untreated effect”). Then, the difference is paw swelling between the compound-treated animals and the animals that had not been administered CII was determined (“treated effect”). The difference between the untreated effect and the treated effect is then divided by the […] and multiplied by 100 to arrive at percent inhibition. Percent inhibition reported was from day of “peak” or maximal disease (manifested by maximum paw swelling), typically day 17.

Molecules are shown by their SMILES.

As to `C#CC[C@@H](O)/C=C/C=C/C#CCCCCC(=O)O` [Compound 301], the figures for the inhibition in vivo at 0.3 mg/kg in the test on Balb/c mice and in the test with Lewis rats were 15% and 11%, respectively.
For `C#CCC/C=C/C=C/C#C[C@@H](O)CCCC(=O)O` [Compound 302], in that order: 24% and 37%.
For `O=C(O)CCC[C@H](O)C#C/C=C/C=C/[C@H](O)Cc1ccc(F)cc1` [Compound 303], in that order: 21% and 0%.
For `O=C(O)CCC[C@H](O)C#C/C=C/C=C/[C@H](O)CC1CC1` [Compound 304], in that order: 20% and 28%.
With `O=C(O)CCC[C@H](O)C#C/C=C/C=C/[C@H](O)CC#Cc1ccc(F)cc1` [Compound 306], the inhibition in vivo at 0.3 mg/kg in the test with Balb/c mice was found to be 16%.
Take `O=C(O)CCC[C@H](O)C#C/C=C/C=C/[C@H](O)CC#Cc1ccc(Cl)c(Cl)c1` [Compound 314]: the results for the inhibition in vivo at 0.3 mg/kg in the test on Balb/c mice and in the test on Lewis rats were 28% and 27%, respectively.
Take `O=C(O)CC[C@H](O)C#C/C=C/C=C/[C@H](O)CC1CC1` [Compound 315]: the inhibition in vivo at 0.3 mg/kg in the test on Balb/c mice turned out to be 32%; with Lewis rats, 7%.
For `C#CC[C@@H](O)/C=C/C=C/C#CC(F)(F)CCCC(=O)O` [Compound 320], in that order: 35% and 18%.
For `C#CC[C@@H](O)/C=C/C=C/[C@@H]1C[C@@H]1[C@@H](O)CCCC(=O)O` [Compound 321] the same measures were 32% and 10%.
For `C#CC[C@@H](O)/C=C/C=C/C#C[C@H](O)CCCC(=O)O` [Compound 323], in that order: 46% and 38%.

By inhibition in vivo is commonly meant the percentage by which the read-out fell short of the control.

For the origin of these results see patent publication US20110245528A1, “THERAPEUTIC COMPOUNDS” (priority 2008, published 2011).
